Source: US20100197599A1, “USE OF A PEPTIDE AS A THERAPEUTIC AGENT” (priority 2007, published 2010)
No end group written: not given here.

Experiments:
HIV-1IIIB = assay: HIV-1 antiviral assay in CEM-SS cells (MTS readout); details: positive controls
HCMV strain AD169 = assay: HCMV plaque formation assay in MRC-5 cells; details: for inhibition of HCMV plaque formation as compared to the virus control experiment: 10 micrograms per ml, 7-10 days
[1] = tested on: hepatitis B virus (HBV) ayw strain; assay: HBV assay in HepG2-2.2.15 cells (secreted HBV DNA, TaqMan PCR); format: cell-based; details: HepG2-2.2.15 liver cells, 10 micrograms per ml, six days
RAW 264.7 cells = assay: Phagocytosis assay (Fluorescein-labeled Escherichia coli, flow cytometry); format: cell-based, Mouse; details: 10 micrograms per ml, Fluorescein-labeled E. coli
Procedure: RAW 264.7 (Mouse leukaemic monocyte macrophage cell line) cells were obtained from ATCC and grown in RPMI 1640 medium containing 10% FBS. […] After the cells were incubated for additional 60 min at 37° C. and allowed to ingest the Fluorescein-labeled Escherichia coli bacteria, cells were fixed with 1% paraformaldehyde. The samples were then analyzed by flow cytometry to determine the amount of phagocytosis as a function of brightness (the greater the phagocytic activity, the more fluorescence in the macrophage population). Data are reported as % positive and the mean fluorescence intensity (MFI) of positively stained cells.

Human A549 cells = assay: Apoptosis prevention assay (C2 ceramide, Annexin-5); format: cell-based; details: 10 micrograms per ml pretreatment 30 min
[2] = tested on: Primary Human endothelial cells (HUVEC); assay: Endothelial cell migration assay; format: cell-based; details: 10 micrograms per ml, 22 hours
Procedure: Thereafter, designated concentration of testing peptides—10 micrograms per ml—was added in duplicate wells.

HUVEC = assay: Endothelial tube formation assay; format: cell-based, human; details: 10 micrograms per ml, 20 hours
Description: Positive control was vehicle only.

Interleukin-2 (IL-2) = assay: Th1/Th2 cytokine profiling assay, IL-2; details: murine spleen cells, 10 micrograms per ml
Description: (§1) The Balb/c mice (originated in 1923, it is a popular strain and is used in many different research disciplines. Also classified as an inbred from the production of 20 or more successive brother-sister matings, the Balb/c mouse is albino and small in size) were immunized on Days 1, 15, and 29 with Ovalbumin (Ovalbumin is the main protein found in egg white, commonly used to stimulate an immunological reaction in test animals) in PBS (5 micrograms/injection). On day 50, spleens of the mice were harvested (3 weeks after last boost with Ovalbumin). […] Thereafter, additional Ovalbumin was added to the cells at 10 micrograms/ml for in vitro restimulation of the cells. 72 hours later, cell supernatants were harvested and assayed using the Becton Dickinson Mouse Th1/Th2 Cytokine CBA Kit. This kit can be used to measure Interleukin-2 (IL-2), Interleukin-4 (IL-4), Interleukin-5 (IL-5), Interferon-γ (IFN-γ), and Tumor Necrosis Factor-α (TNF-α) protein levels in a single sample. The kit performance has been optimized for analysis of physiologically relevant concentrations (μg/ml levels) of specific cytokine proteins in tissue culture supernatants and serum samples.

Interleukin-4 (IL-4) = assay: Th1/Th2 cytokine profiling assay, IL-4; details: murine spleen cells, 10 micrograms per ml
Description: as §1

Interleukin-5 (IL-5) = assay: Th1/Th2 cytokine profiling assay, IL-5; details: murine spleen cells, 10 micrograms per ml
Description: as §1

[3] = tested on: Tumor Necrosis Factor-α (TNF-α); assay: Th1/Th2 cytokine profiling assay, TNF-α; details: murine spleen cells, 10 micrograms per ml; for change of the production of TNF-alpha: Ovalbumin restimulation, 72 hours
Description: (§2) The Balb/c mice (originated in 1923, it is a popular strain and is used in many different research disciplines. Also classified as an inbred from the production of 20 or more successive brother-sister matings, the Balb/c mouse is albino and small in size) were immunized on Days 1, 15, and 29 with Ovalbumin (Ovalbumin is the main protein found in egg white, commonly used to stimulate an immunological reaction in test animals) in PBS (5 micrograms/injection). On day 50, spleens of the mice were harvested (3 weeks after last boost with Ovalbumin). […] Thereafter, additional Ovalbumin was added to the cells at 10 micrograms/ml for in vitro restimulation of the cells. 72 hours later, cell supernatants were harvested and assayed using the Becton Dickinson Mouse Th1/Th2 Cytokine CBA Kit. This kit can be used to measure Interleukin-2 (IL-2), Interleukin-4 (IL-4), Interleukin-5 (IL-5), Interferon-γ (IFN-γ), and Tumor Necrosis Factor-α (TNF-α) protein levels in a single sample.

Interferon-γ (IFN-γ) = assay: Th1/Th2 cytokine profiling assay, IFN-γ; details: murine spleen cells, 10 micrograms per ml; for induction of the production of IFN-γ: Ovalbumin restimulation, 72 hours
Description: as §2

[4] = Ovalbumin restimulation, 72 hours

Row | Compound | antiviral activity of positive control compounds (HIV-1IIIB) | inhibition of HBV replication as compared to the virus control infection [1] | induction of phagocytosis as compared to the control experiment (RAW 264.7 cells) | reduction of the ceramide-induced apoptosis on human lung cells (Human A549 cells) | IL-2 spleen cells (% of control) (Interleukin-2 (IL-2)) | IL-4 spleen cells; TH2 response (% of control) (Interleukin-4 (IL-4)) | IL-5 spleen cells; TH2 response (% of control) (Interleukin-5 (IL-5)) | TNF-a spleen cells; TH1 response (% of control) [3] | change of the production of TNF-alpha [3] | IFNγ spleen cells; TH1 response (% of control) (Interferon-γ (IFN-γ)) | induction of the production of IFN-γ (Interferon-γ (IFN-γ)) | inhibition of HCMV plaque formation as compared to the virus control experiment (HCMV strain AD169) | also measured
1 | Cc1cn([C@H]2C[C@H](N=[N+]=[N-])[C@@H](CO)O2)c(=O)[nH]c1=O [AZT] | expected levels of antiviral activity | – | – | – | – | – | – | – | – | – | – | – | –
2 | Nc1nc(O)c2ncn(COC(CO)CO)c2n1 [Ganciclovir, reference compound] | – | – | – | – | – | – | – | – | – | – | – | – | antiviral activity of positive control compound (HCMV strain AD169; HCMV AD169, positive control): expected levels of antiviral activity
3 | CC(C)(C)NC(=O)[C@@H]1CN(Cc2cccnc2)CCN1C[C@@H](O)C[C@@H](Cc1ccccc1)C(=O)N[C@H]1c2ccccc2C[C@H]1O [indinavir] | expected levels of antiviral activity | – | – | – | – | – | – | – | – | – | – | – | –
4 | Met-Ala-Pro-Arg-Gly-Phe-Ser-Cys-Leu-Leu-Leu-Leu-Thr-Ser-Glu-Ile-Asp-Leu-Pro-Val-Lys-Arg-Arg-Ala-OH (MAPRGFSCLLLLTSEIDLPVKRRA-OH) [peptide 1] | – | 3.9% | 94.3% | 10.7% | 50.6 % of control | 75.1 % of control | 63.5 % of control | 104.2 % of control | did not significantly change | 122.3 % of control | 22.3% | 3.2% | inhibition of the migration of human endothelial cells [2]: 3%; induction of the tube formation of human endothelial cells (HUVEC): 23%; decrease of the production of IL-2 (Interleukin-2 (IL-2); [4]): 49.4%; change of the production of IL-4 (Interleukin-4 (IL-4); [4]): did not significantly change; decrease of the production of IL-5 (Interleukin-5 (IL-5); [4]): 36.5%
5 | Tyr-Gly-Gly-Phe-Leu-Arg-Lys-Tyr-Pro-Lys-OH (YGGFLRKYPK-OH) [peptide 2] | – | no effect | 54.3% | 17.9% | 141.5 % of control | 170.6 % of control | 67.5 % of control | 101.0 % of control | did not significantly change | 130.3 % of control | 30.3% | 6.9% | induction of the migration of human endothelial cells [2]: 11%; inhibition of the tube formation of human endothelial cells (HUVEC): 5%; induction of the production of IL-2 (Interleukin-2 (IL-2); [4]): 41.5%; induction of the production of IL-4 (Interleukin-4 (IL-4); [4]): 70.6%; change of the production of IL-5 (Interleukin-5 (IL-5); [4]): did not significantly change
